Key:
REH cells = experiment: MTT cytotoxicity assay, REH cell line; format: cell-based, human; conditions: 48 h of treatment
Method: All compounds were resuspended in DMSO at stock concentration of 20 mM and stored at −20° C. For cytotoxicity testing, the dilutions from the stock solutions were made in culture medium (RPMI-1640 plus 10% of fetal bovine serum, 100 IU/ml penicillin and 100 µg/mL Streptomycin), immediately before being discharged to the cells.
The REH and Jurkat cell lines were maintained in
RPMI-1640 medium with 10% FBS (fetal bovine serum), 100 IU/mL penicillin, 100 µg/mL streptomycin and incubated at 37° C. and 5% CO2. Cytotoxicity assays were performed according to the method described in the literature (Pieters, R.; et al. In vitro drug sensitivity of cells from children with leukemia using the MTT assay with improved culture conditions. Blood, 1990, 76, 2327-2336; Pieters, R.; et al. Relation of cellular drug resistance to long-term clinical outcome in childhood acute lymphoblastic leukaemia. Lancet, 1991, 338, 399-403 e Kaspers, G. J.; et al. In vitro cellular drug resistance and prognosis in newly diagnosed childhood acute lymphoblastic leukemia. Blood, 1997, 90, 2723). Cells were resuspended at a concentration of 3.75 10^5 cells/mL in culture medium as described. Eighty microliters of this suspension were seeded into plates with 96 round-bottom wells, containing 20 microliters of different concentrations of compound or vehicle alone. Each treatment was done in triplicate. After 48 hours of incubation at 37° C. and 5% CO2, 20 μL of MTT solution was added (5 mg/mL of 1x PBS), followed by further incubation for 4 hours and 30 minutes at 37° C. and 5% CO2. During these 4 hours and 30 minutes, MTT (yellowish) is metabolized to formazan salt (bluish in color) by living cells. After this, 100 μL sodium dodecyl sulphate (SDS) 10%+0.1M of HCl were added to dissolve the formazan crystals. After incubating overnight, absorbance reading at 570 nm was carried out. The percentage of cells surviving the treatment were calculated relative to the number of surviving cells in the medium without addition of the compounds in question (“negative control”).
c) Determination of IC: IC50 is defined as the concentration of a compound at which 50% of maximal inhibition is obtained. After reading the absorbance, survival curves were constructed and the values of IC50 were obtained with the GraphPad Prism software.

[1] = tested on: healthy and phytohemagglutinin-stimulated lymphocytes; experiment: MTT assay on normal lymphocytes stimulated with phytohemagglutinin; format: cell-based, human; conditions: for Percentage of survival: 48 h, MTT
Method: for the test of compound 07 against normal lymphocytes, blood from human donors was separated in a ficoll gradient and the mononuclear cells were cultivated at 200,000 cells/well, in 80 microliters of RPMI-1640 (containing 10% FBS, 100 IU/mL penicillin and 100 μg/mL streptomycin) and 20 microliters of phytohemagglutinin solution (Cultilab) in each well for stimulation of T lymphocytes. Compound 07 was added in serial dilutions (50%) from 300 to 1 nm. As a control, parallel tests were run with cells from leukemic Jurkat and REH cell lines, and experiments with colchicine with the same concentrations as compound 07. Cytotoxicity was assessed after 48 hours by the MTT method, as described Above.

[2] = tested on: Bone marrow cells from healthy donors; experiment: Colony formation assay of hematopoietic cells; format: cell-based, human; conditions: for Colony formation BFU-E / Colony formation CFU-E / Colony formation CFU-G / Colony formation CFU-GEMM / Colony formation CFU-GM / Colony formation CFU-M: two weeks of culture
Method: Cytotoxicity of compound 07 was also evaluated with a colony formation assay of hematopoietic cells. A “HSC-CFU complete with Epo” kit from Miltenyi (Cat #130-091-280) was used following the manufacturer's recommendations. Bone marrow cells from healthy donors were cultured in semi-solid methylcellulose medium supplemented with bovine fetal serum, bovine serum albumin, different growth factors (GM-CSF, G-CSF, SCF, IL-3, IL-6, Epo) and compound 07, whose action on hematopoiesis was evaluated. After two weeks of culture at 37° C. and 5% CO2, an assessment of the number of granulocytes (CFU-G), macrophage (CFU-M), granulocyte/macrophage (CFU-GM), erythroid (BFU-E and CFU-E) and mixed (CFU-GEMM) colonies was carried out.

Jurkat cells = experiment: Quantification of apoptosis with Annexin V/PI labeling; format: cell-based, human; conditions: 125 nM, 18 h
Method: The cells were incubated for 12 hours in fresh medium before experiments. Two million cells from the Jurkat line were incubated for 12 h, 18 h, 24 h and 30 h in RPMI-640 medium supplemented with 10% Fetal Bovine Serum (FCS) and 0.2% Penicillin/Streptomycin (PS) with a concentration of 125 nM of compound 07 or DMSO (vehicle).
The cells treated or not with compound 07 were rinsed in PBS and labeled with Annexin V Apoptosis Assay kit (Invitrogen). Briefly, cells were resuspended in appropriate buffer containing calcium and incubated for 15 min with Annexin V-FITC and propidium iodide 5 μg/mL. 10,000 events were collected on FACSCalibur flow cytometer, excluding any debris by forward vs standard, side scatter, with quantification of green and red fluorescence.

[3] = molecular target: Trypanosoma cruzi cruzain (Trypanosoma cruzi, UniProt P25779); conditions: cited from earlier work
Chain of Trypanosoma cruzi cruzain (P25779 123-467): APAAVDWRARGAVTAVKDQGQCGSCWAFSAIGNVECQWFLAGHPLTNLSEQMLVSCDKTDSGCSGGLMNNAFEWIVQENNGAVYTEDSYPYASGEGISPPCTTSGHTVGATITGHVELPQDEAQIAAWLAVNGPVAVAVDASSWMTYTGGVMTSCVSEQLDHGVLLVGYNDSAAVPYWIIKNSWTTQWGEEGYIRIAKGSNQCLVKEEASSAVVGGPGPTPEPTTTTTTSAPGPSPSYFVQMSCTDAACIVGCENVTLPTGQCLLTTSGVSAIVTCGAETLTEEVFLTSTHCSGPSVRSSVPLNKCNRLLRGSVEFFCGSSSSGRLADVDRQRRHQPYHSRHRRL

## COc1cc(C(=O)NN=Cc2cccc3ccccc23)cc(OC)c1OC [Compound 07]
REH cells
  IC50: 25.4 nM
[1]
  effect on normal lymphocytes induced by phytohemagglutinin: do not appear to affect normal lymphocytes
  selectivity for leukemic cells compared to healthy human lymphocytes: ~10 times
[1]; 4.6 nM
  Percentage of survival: 103%
[1]; 9.38 nM
  Percentage of survival: 105%
[1]; 18.75 nM
  Percentage of survival: 105%
[1]; 37.5 nM
  Percentage of survival: 101%
[1]; 75 nM
  Percentage of survival: 108%
[1]; 150 nM
  Percentage of survival: 107%
[1]; 300 nM
  Percentage of survival: 95%
[2]; 2 nM
  Colony formation BFU-E: 39%
  Colony formation CFU-E: 23%
  Colony formation CFU-G: 11%
  Colony formation CFU-GEMM: 1%
  Colony formation CFU-GM: 52%
  Colony formation CFU-M: 17%
[2]; 20 nM
  effect on erythrocyte formation: inhibitory activity on erythrocyte formation comparable to a PI3K inhibitor
  effect on granulocytes and macrophages: inhibitory activity against granulocytes and macrophages, although low in intensity when compared to a F13K inhibitor
  Colony formation BFU-E: 26%
  Colony formation CFU-E: 11%
  Colony formation CFU-G: 14%
  Colony formation CFU-GEMM: 2%
  Colony formation CFU-GM: 27%
  Colony formation CFU-M: 25%
[2]; 200 nM
  effect on hematopoiesis: completely inhibited hematopoiesis
  Colony formation BFU-E: 0%
  Colony formation CFU-E: 0%
  Colony formation CFU-G: 0%
  Colony formation CFU-GEMM: 0%
  Colony formation CFU-GM: 0%
  Colony formation CFU-M: 0%
Jurkat cells
  induction of apoptosis: strong inducer of apoptosis
[3]
  inhibitory activity of cruzain: did not show inhibitory activity

— patent US20150191445A1, “ACYL-HYDRAZONE AND OXADIAZOLE COMPOUNDS, PHARMACEUTICAL COMPOSITIONS CONTAINING THE SAME AND USES THEREOF” (Universidade Federal de Santa Catarina, priority 2011, published 2015)
